For 15 compounds, IC50 and Ki results are on record in patent US20120165339A1, “CYCLOPROPANE DERIVATIVES” (EISAI R&D MANAGEMENT CO., LTD., priority 2010, published 2012).

Assay [1] has as its target T1, OX1 (Homo sapiens, UniProt O43613).
T1 sequence (O43613 1-425): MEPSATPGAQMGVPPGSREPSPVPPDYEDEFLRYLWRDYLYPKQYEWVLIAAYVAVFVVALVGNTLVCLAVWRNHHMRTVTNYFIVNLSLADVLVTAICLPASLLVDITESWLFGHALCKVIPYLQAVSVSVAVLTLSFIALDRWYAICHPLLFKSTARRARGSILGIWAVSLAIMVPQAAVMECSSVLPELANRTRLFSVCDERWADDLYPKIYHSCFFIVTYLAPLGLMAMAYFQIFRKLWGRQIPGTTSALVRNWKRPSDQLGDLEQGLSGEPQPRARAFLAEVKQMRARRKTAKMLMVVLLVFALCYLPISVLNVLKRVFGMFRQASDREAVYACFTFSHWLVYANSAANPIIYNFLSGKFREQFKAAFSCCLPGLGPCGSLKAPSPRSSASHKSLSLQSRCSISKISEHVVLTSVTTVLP
The experiment in a line: Orexin-receptor binding ability, [125I]-OX-A, CHO cell membranes expressing OX1. More on the design: expressed in transfected cells; host or cells: CHO cells (membrane preparation). Here is the method: (§1) The assay was carried out using a 96-well Wheat Germ Agglutinin Flash Plate (PerkinElmer). The volume in a single assay well was 100 ul, and the composition of the reaction solution was as follows:
(§2) 25 mM HEPES (pH 7.5), 1 mM CaCl2, 4.5 mM MgCl2, 0.5% BSA (bovine serum albumin), 0.1% sodium azide, 0.05% Tween-20, and 0.2% DMSO.
Cell membranes were prepared from recombinant CHO cells that expressed OX2 or OX1. The cell membranes were used in an amount of 5 μg protein/assay. […] Finally, the radioactivity of each well was measured using a scintillation counter (TopCount, PerkinElmer). The obtained results are shown in terms of IC50 values (nM) in the following table.

Assay [2] deals with T2, OX2 (Homo sapiens, UniProt O43614).
T2 sequence (O43614 1-444): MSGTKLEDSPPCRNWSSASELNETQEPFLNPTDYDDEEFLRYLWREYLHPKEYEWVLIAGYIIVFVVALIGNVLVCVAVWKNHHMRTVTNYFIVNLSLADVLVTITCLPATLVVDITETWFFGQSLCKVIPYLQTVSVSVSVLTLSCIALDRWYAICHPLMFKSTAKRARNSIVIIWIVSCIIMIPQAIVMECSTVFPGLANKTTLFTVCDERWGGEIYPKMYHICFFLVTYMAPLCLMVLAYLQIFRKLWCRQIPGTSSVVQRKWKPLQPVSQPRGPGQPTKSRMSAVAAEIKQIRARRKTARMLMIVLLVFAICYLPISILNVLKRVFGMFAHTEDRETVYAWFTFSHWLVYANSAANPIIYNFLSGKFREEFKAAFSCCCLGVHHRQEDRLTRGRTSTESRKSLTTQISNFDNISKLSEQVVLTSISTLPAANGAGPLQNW
Description: Orexin-receptor binding ability, [125I]-OX-A, CHO cell membranes expressing OX2. Set-up: expressed in transfected cells; host or cells: CHO cells (membrane preparation). As for the experimental part:
as §1, §2
Cell membranes were prepared from recombinant CHO cells that expressed OX2 or OX1. The cell membranes were used in an amount of 5 μg protein/assay. Test compound in various concentrations, and 0.2 nM [^125I]-OX-A as tracer were added to the cell membranes, and then allowed to react at room temperature for 30 minutes. After completion of the reaction, the reaction solution as a whole was discarded, and the wells were then washed once with 200 ul of wash buffer (25 mM HEPES (pH 7.5), 1 mM CaCl2, 5 mM MgCl2, 0.5% BSA, 0.1% sodium azide, 0.05% Tween-20, and 525 mM sodium chloride). Finally, the radioactivity of each well was measured using a scintillation counter (TopCount, PerkinElmer). The obtained results are shown in terms of IC50 values (nM) in the following table.

Assay [3] addresses T2, OX2. Description: Antagonism PLAP reporter assay, HEK-293 cells expressing human OX2. Particulars: HEK-293, 1 nM human OX-A; IC50 converted to Ki by Cheng-Prusoff equation. More on the design: expressed in transfected cells; host or cells: HEK-293 cell line, expression vector pBabeCLIH. It counts as cell-based. As for the experimental part:
(§3) The antagonistic function of the compound of the present invention to prevent the activation of OX2 and OX1 by orexin-A (OX-A), which is a natural peptide agonist, was measured using a cell-based reporter assay. A HEK-293 cell line expressing genetically recombinant human OX2 (accession No. NM_001526.3) or a HEK-293 cell line expressing genetically recombinant human OX1 (accession No. NM_001525.2), which had pBabeCLIH as expression vector, was used. The cells were plated at a density of 10,000 cells/well onto a non-coated 96-well plate in Dulbecco's modified Eagle medium (Sigma Cat No. D6046: 10% v/v heat-inactivated fetal bovine serum was contained). The cells were cultured at 37° C. overnight, so that they could adhere to the plate. On the following day, cells were incubated with a compound of the present invention dissolved in Dulbecco's modified Eagle medium (Sigma Cat No. A8806: 0.1% w/v bovine serum albumin was contained), and added to the cell plate to reach a final concentration of 0.1% dimethyl sulfoxide.
(§4) The thus obtained mixture was incubated at room temperature for 1 hour. Thereafter, human OX-A and forskolin were dissolved in the same medium as described above, which contained fetal bovine serum albumin, and the medium was then added to the cells, resulting in a final concentration of 300 nM forskolin. Subsequently, the cells were cultured at 37° C. for approximately 18 to 24 hours. During the culture, as a result of activation of the orexin receptor and subsequent dose-dependent increase in intracellular calcium concentration, a reporter enzyme, placental alkaline phosphatase (PLAP), was expressed under the control of a CRE x4+VIP promoter in a pBabeCLcre4vPdNN vector and secreted into the culture medium supernatant. On the following day, reporter enzyme activity was detected by mixing 5 ul of the culture medium supernatant with 20 ul of detection buffer (containing 1.34 g/L sodium bicarbonate, 1.27 g/L sodium carbonate and 0.2 g/L magnesium sulfate heptahydrate in water) and 25 ul of Lumi-Phos530 reagent (Wako Pure Chemical Industries Ltd.), followed by incubating the obtained mixture light-protected at room temperature for 2 hours, before performing luminescence measurement (ARVO Reader, PerkinElmer). The Kd value of human OX-A with respect to each receptor was measured by titration from 0 to 300 nM. Then, the IC50 value of the compound of the present invention with respect to the activity of 1 nM human OX-A was converted into a Ki value (nM) using the Cheng-Prusoff equation.

The target in assay [4] is T1, OX1. Description: Antagonism PLAP reporter assay, HEK-293 cells expressing human OX1. It is filed as cell-based. Set-up: expressed in transfected cells; host or cells: HEK-293 cell line, expression vector pBabeCLIH. Conditions: HEK-293, 1 nM human OX-A; IC50 converted to Ki by Cheng-Prusoff equation. As for the experimental part: as §3, §4
Where [5] appears, read: membranes of recombinant CHO cells, 0.2 nM [125I]-OX-A tracer, read-out: OX1 (IC50).
Setting [6] is: membranes of recombinant CHO cells, 0.2 nM [125I]-OX-A tracer, read-out: OX2 (IC50).

Like-named read-outs stand apart in the source and are kept apart here.

In the case of `COc1ccc(OCC2(c3ccccc3)CC2C(=O)Nc2cc(C#N)ccn2)cc1OC` (stereo not drawn) [Example 18, N-(4-cyanopyridin-2-yl)-2-[(3,4-dimethoxyphenyl)oxymethyl]-2-phenylcyclopropanecarboxamide], the figures for the 50% inhibitory concentration (IC50) at OX1 [1] (setting [5]) and at OX2 [2] (setting [6]) were 105 nM and 35 nM, respectively. For the same compound, the inhibition constant Ki on OX2 [3] came to 23.7 nM; at OX1 [4], 186 nM.

Take `COc1ccc(OCC2(c3ccccc3)CC2C(=O)Nc2ncc(C)s2)cc1OC` (stereo not drawn) [Example 22, N-(5-methyl-1,3-thiazol-2-yl)-2-[(3,4-dimethoxyphenyl)oxymethyl]-2-phenylcyclopropanecarboxamide]: the results for the IC50 on OX1 [1] (setting [5]) and at OX2 [2] (setting [6]) were 296 nM and 35 nM, respectively. Besides, the inhibition constant (Ki) on OX2 [3] was greater than 614 nM; at OX1 [4], greater than 816 nM.

As to `COc1ccc(OCC2(c3ccccc3)CC2C(=O)Nc2cccc(C)n2)cc1OC` (stereo not drawn) [Example 37, N-(6-methylpyridin-2-yl)-2-[(3,4-dimethoxyphenyl)oxymethyl]-2-phenylcyclopropanecarboxamide], the IC50 is 403 nM on OX1 [1] (setting [5]) and 18 nM at OX2 [2] (setting [6]). The values for the Ki on OX2 [3] and on OX1 [4] were 14 nM and 593 nM, respectively.

As to `COc1ccc(OCC2(c3ccccc3)CC2C(=O)Nc2cncc(Cl)c2)cc1OC` (stereo not drawn) [Example 11, N-(5-chloropyridin-3-yl)-2-[(3,4-dimethoxyphenyl)oxymethyl]-2-phenylcyclopropanecarboxamide], the results for the half-inhibitory concentration (IC50) at OX1 [1] (setting [5]) and on OX2 [2] (setting [6]) were 333 nM and 29 nM, respectively. Also, the inhibition constant Ki at OX2 [3] amounted to 48.2 nM; at OX1 [4], 572 nM.

`CCn1nc(C)cc1OCC1(c2ccccc2)CC1C(=O)Nc1ccc(Cl)cn1` (stereo not drawn) [Example 57]: the figures for the 50% inhibitory concentration (IC50) on OX1 [1] (setting [5]) and on OX2 [2] (setting [6]) were 483 nM and 46 nM, respectively. In addition, the Ki at OX2 [3] is 31.7 nM; at OX1 [4] it was greater than 467 nM.

On to `COc1ccc(OCC2(c3ccccc3)CC2C(=O)Nc2nc(C)ns2)cc1OC` (stereo not drawn) [Example 7, N-(3-methyl-1,2,4-thiadiazol-5-yl)-2-[(3,4-dimethoxyphenyl)oxymethyl]-2-phenylcyclopropanecarboxamide], for which the 50% inhibitory concentration (IC50) is 1900 nM on OX1 [1] (setting [5]) and 43 nM at OX2 [2] (setting [6]). Besides, the Ki at OX2 [3] was 55.9 nM; at OX1 [4], greater than 816 nM.

Regarding `CCn1cc(OCC2(c3ccccc3)CC2C(=O)Nc2ccc(C#N)cn2)ccc1=O` (stereo not drawn) [Example 55], the IC50 on OX1 [1] (setting [5]) came out at 675 nM; on OX2 [2] (setting [6]), 33 nM. The Ki is 43.6 nM on OX2 [3] and greater than 467 nM at OX1 [4].

As for `COc1cccc(NC(=O)C2CC2(COc2ccc(OC)c(OC)c2)c2ccccc2)c1` (stereo not drawn) [Example 34, N-(3-methoxyphenyl)-2-[(3,4-dimethoxyphenyl)oxymethyl]-2-phenylcyclopropanecarboxamide], the IC50 at OX1 [1] (setting [5]) is 20 nM; on OX2 [2] (setting [6]) it was 6 nM. Moreover, the results for the Ki at OX2 [3] and on OX1 [4] were 4.5 nM and 24 nM, respectively.

Regarding `COc1ccc(OCC2(c3ccccc3)CC2C(=O)Nc2cccc(F)n2)cc1OC` (stereo not drawn) [Example 27, N-(6-fluoropyridin-2-yl)-2-[(3,4-dimethoxyphenyl)oxymethyl]-2-phenylcyclopropanecarboxamide], the results for the IC50 at OX1 [1] and on OX2 [2] were 37 nM and 4 nM, respectively. The inhibition constant (Ki) at OX2 [3] is 3.4 nM; at OX1 [4] it was 98 nM.

For `COc1ccc(OCC2(c3ccccc3)CC2C(=O)Nc2ccccc2-c2nnc[nH]2)cc1OC` (stereo not drawn) [Example 35, N-[2-(1H-1,2,4-triazol-3-yl)phenyl]-2-[(3,4-dimethoxyphenyl)oxymethyl]-2-phenylcyclopropanecarboxamide], the concentration for half-maximal inhibition (IC50) on OX1 [1] (setting [5]) stood at 2040 nM; on OX2 [2] (setting [6]) it was 47 nM. Also, the inhibitory constant (Ki) at OX2 [3] amounted to 122 nM; at OX1 [4], 1900 nM.

With `CCn1cc(OCC2(c3ccccc3)CC2C(=O)Nc2ccc(Cl)cn2)ccc1=O` (stereo not drawn) [Example 54, N-(5-chloropyridin-2-yl)-2-[(1-ethyl-6-oxo-1,6-dihydropyridin-3-yl)oxymethyl]-2-phenylcyclopropanecarboxamide], the IC50 turned out to be 61 nM on OX1 [1] (setting [5]) and 3 nM at OX2 [2] (setting [6]). The inhibition constant (Ki) on OX2 [3] was determined as 0.8 nM; at OX1 [4], 37.5 nM.

Regarding `COc1ccc(OC[C@@]2(c3ccccc3)C[C@H]2C(=O)Nc2ccccn2)cc1OC` [Example 41, (1R,2S)—N-(pyridin-2-yl)-2-[(3,4-dimethoxyphenyl)oxymethyl]-2-phenylcyclopropanecarboxamide], the half-inhibitory concentration (IC50) on OX1 [1] (setting [5]) was determined as 374 nM; at OX2 [2] (setting [6]), 35 nM. The figures for the Ki at OX2 [3] and at OX1 [4] were 24.8 nM and 297 nM, respectively.

Take `CCc1nc(C)c(CC[C@@]2(c3ccccc3)C[C@H]2C(=O)Nc2ccc(C#N)cn2)s1` [Example 100, (1R,2R)—N-(5-cyanopyridin-2-yl)-2-[2-(2-ethyl-4-methyl-1,3-thiazol-5-yl)ethyl]-2-phenylcyclopropanecarboxamide]: the IC50 on OX1 [1] (setting [5]) worked out at 58 nM; at OX2 [2] (setting [6]), 9 nM. Further, the Ki came out at 5.2 nM on OX2 [3] and 47.5 nM on OX1 [4].

Take `CCn1cc(OCC2(c3ccccc3)CC2C(=O)Nc2ccc(C#N)cn2)cn1` (stereo not drawn) [Example 80]: the IC50 was 359 nM on OX1 [1] (setting [5]) and 54 nM on OX2 [2] (setting [6]). Moreover, the inhibition constant (Ki) on OX2 [3] was 190 nM; on OX1 [4], greater than 467 nM.

`Cc1ccc(OCC2(c3ccccc3)CC2C(=O)Nc2ccc(Cl)cn2)c(C)n1` (stereo not drawn) [Example 62]: the concentration for half-maximal inhibition (IC50) on OX1 [1] (setting [5]) turned out to be 44 nM; at OX2 [2] (setting [6]), 61 nM. Moreover, the inhibitory constant (Ki) at OX2 [3] is 30.2 nM; on OX1 [4], 481 nM.
